Laboratory results from PubChem BioAssay (NCI).
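Tested at 5 concentrations; 48 h exposure; 96-well plates; endpoints linearly interpolated, else capped at highest concentration. At the GI50, growth is halved. At the TGI there is no net growth.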

What was measured:
Assay in all cases: inhibition of tumour cell growth, NCI panel, 48 h
NCI-H23 lung = test system: NCI-H23 lung
SN12C renal = test system: SN12C renal
HOP-62 NSCLC = test system: HOP-62 NSCLC
OVCAR-5 ovarian = test system: OVCAR-5 ovarian
SK-MEL-5 melanoma = test system: SK-MEL-5 melanoma
MOLT-4 leukemia = test system: MOLT-4 leukemia
MDA-MB-435 = test system: MDA-MB-435
MCF7 breast = test system: MCF7 breast
EKVX NSCLC = test system: EKVX NSCLC
NCI/ADR-RES ovarian = test system: NCI/ADR-RES ovarian
OVCAR-3 ovarian = test system: OVCAR-3 ovarian
HCC-2998 colon = test system: HCC-2998 colon
RPMI-8226 leukemia = test system: RPMI-8226 leukemia
LOX IMVI melanoma = test system: LOX IMVI melanoma
HOP-92 NSCLC = test system: HOP-92 NSCLC
OVCAR-8 ovarian = test system: OVCAR-8 ovarian
SK-MEL-2 melanoma = test system: SK-MEL-2 melanoma
COLO 205 colon = test system: COLO 205 colon
PC-3 prostate = test system: PC-3 prostate
NCI-H226 lung = test system: NCI-H226 lung
RXF 393 renal = test system: RXF 393 renal
SF-295 CNS = test system: SF-295 CNS
SR leukemia = test system: SR leukemia
DU-145 prostate = test system: DU-145 prostate
A549 NSCLC = test system: A549 NSCLC
NCI-H522 lung = test system: NCI-H522 lung
T-47D breast = test system: T-47D breast
MALME-3M melanoma = test system: MALME-3M melanoma
TK-10 renal = test system: TK-10 renal
HCT-15 colon = test system: HCT-15 colon
HS 578T breast = test system: HS 578T breast
SF-268 CNS = test system: SF-268 CNS
SF-539 CNS = test system: SF-539 CNS
KM12 colon = test system: KM12 colon
CCRF-CEM leukemia = test system: CCRF-CEM leukemia
UACC-257 melanoma = test system: UACC-257 melanoma
SW-620 colon = test system: SW-620 colon
OVCAR-4 ovarian = test system: OVCAR-4 ovarian
HCT-116 colon = test system: HCT-116 colon
IGROV1 ovarian = test system: IGROV1 ovarian
SNB-75 CNS = test system: SNB-75 CNS
SNB-19 CNS = test system: SNB-19 CNS
SK-OV-3 ovarian = test system: SK-OV-3 ovarian
HL-60(TB) leukemia = test system: HL-60(TB) leukemia
M14 melanoma = test system: M14 melanoma
A498 renal = test system: A498 renal
BT-549 breast = test system: BT-549 breast
K-562 leukemia = test system: K-562 leukemia
786-0 renal = test system: 786-0 renal
CAKI-1 renal = test system: CAKI-1 renal
UO-31 renal = test system: UO-31 renal
UACC-62 melanoma = test system: UACC-62 melanoma
MDA-MB-231 breast = test system: MDA-MB-231 breast
ACHN renal = test system: ACHN renal
HT29 colon = test system: HT29 colon
SK-MEL-28 melanoma = test system: SK-MEL-28 melanoma
U251 CNS = test system: U251 CNS
NCI-H460 lung = test system: NCI-H460 lung

Cc1csc(/C=N/NC(=O)c2nnn(-c3ccnc4c(C(F)(F)F)cccc34)c2C)c1 gave a GI50 (NCI-H23 lung) of 48.1 µM, a TGI (NCI-H23 lung) of over 100 µM and a GI50 (SN12C renal) of 71.4 µM. It also gave a TGI (SN12C renal) of over 100 µM, a GI50 (HOP-62 NSCLC) of 63.5 µM and a TGI (HOP-62 NSCLC) of over 100 µM. It also gave a GI50 (OVCAR-5 ovarian) of over 100 µM, a TGI (OVCAR-5 ovarian) of over 100 µM and a GI50 (SK-MEL-5 melanoma) of 27.2 µM. For the same molecule, the TGI (SK-MEL-5 melanoma) was over 100 µM, the GI50 (MOLT-4 leukemia) was 48.8 µM and the TGI (MOLT-4 leukemia) was over 100 µM. It also gave a GI50 (MDA-MB-435) of 85.3 µM, a TGI (MDA-MB-435) of over 100 µM and a GI50 (MCF7 breast) of over 100 µM. For the same molecule, the TGI (MCF7 breast) was over 100 µM, the GI50 (EKVX NSCLC) was over 100 µM and the TGI (EKVX NSCLC) was over 100 µM. It also gave a GI50 (NCI/ADR-RES ovarian) of over 100 µM, a TGI (NCI/ADR-RES ovarian) of over 100 µM and a GI50 (OVCAR-3 ovarian) of 90.3 µM. It also gave a TGI (OVCAR-3 ovarian) of over 100 µM, a GI50 (HCC-2998 colon) of over 100 µM and a TGI (HCC-2998 colon) of over 100 µM. The GI50 (RPMI-8226 leukemia) was 33.7 µM, the TGI (RPMI-8226 leukemia) was over 100 µM and the GI50 (LOX IMVI melanoma) was 72.2 µM. For the same molecule, the TGI (LOX IMVI melanoma) was over 100 µM, the GI50 (HOP-92 NSCLC) was 55.8 µM and the TGI (HOP-92 NSCLC) was over 100 µM. The GI50 (OVCAR-8 ovarian) was 74.1 µM, the TGI (OVCAR-8 ovarian) was over 100 µM and the GI50 (SK-MEL-2 melanoma) was over 100 µM. For the same molecule, the TGI (SK-MEL-2 melanoma) was over 100 µM, the GI50 (COLO 205 colon) was 34.2 µM and the TGI (COLO 205 colon) was over 100 µM. The GI50 (PC-3 prostate) was 41.1 µM, the TGI (PC-3 prostate) was over 100 µM and the GI50 (NCI-H226 lung) was 79 µM. The TGI (NCI-H226 lung) was over 100 µM, the GI50 (RXF 393 renal) was 1.41 µM and the TGI (RXF 393 renal) was 62.7 µM. It also gave a GI50 (SF-295 CNS) of 34.7 µM, a TGI (SF-295 CNS) of over 100 µM and a GI50 (SR leukemia) of 19.3 µM. It also gave a TGI (SR leukemia) of over 100 µM, a GI50 (DU-145 prostate) of over 100 µM and a TGI (DU-145 prostate) of over 100 µM. The GI50 (A549 NSCLC) was 36.6 µM, the TGI (A549 NSCLC) was over 100 µM and the GI50 (NCI-H522 lung) was 28.7 µM. The TGI (NCI-H522 lung) was over 100 µM, the GI50 (T-47D breast) was 29.5 µM and the TGI (T-47D breast) was over 100 µM. For the same molecule, the GI50 (MALME-3M melanoma) was 26.9 µM, the TGI (MALME-3M melanoma) was 92.2 µM and the GI50 (TK-10 renal) was 41.8 µM. For the same molecule, the TGI (TK-10 renal) was over 100 µM, the GI50 (HCT-15 colon) was 36.9 µM and the TGI (HCT-15 colon) was over 100 µM. The GI50 (HS 578T breast) was over 100 µM, the TGI (HS 578T breast) was over 100 µM and the GI50 (SF-268 CNS) was over 100 µM. For the same molecule, the TGI (SF-268 CNS) was over 100 µM, the GI50 (SF-539 CNS) was over 100 µM and the TGI (SF-539 CNS) was over 100 µM. The GI50 (KM12 colon) was over 100 µM, the TGI (KM12 colon) was over 100 µM and the GI50 (CCRF-CEM leukemia) was 56.8 µM. For the same molecule, the TGI (CCRF-CEM leukemia) was over 100 µM, the GI50 (UACC-257 melanoma) was 14 µM and the TGI (UACC-257 melanoma) was 51.4 µM. The GI50 (SW-620 colon) was over 100 µM, the TGI (SW-620 colon) was over 100 µM and the GI50 (OVCAR-4 ovarian) was 5.2 µM. For the same molecule, the TGI (OVCAR-4 ovarian) was 37.4 µM, the GI50 (HCT-116 colon) was 36 µM and the TGI (HCT-116 colon) was over 100 µM. For the same molecule, the GI50 (IGROV1 ovarian) was over 100 µM, the TGI (IGROV1 ovarian) was over 100 µM and the GI50 (SNB-75 CNS) was 27.2 µM. It also gave a TGI (SNB-75 CNS) of 92.1 µM, a GI50 (SNB-19 CNS) of 97.3 µM and a TGI (SNB-19 CNS) of over 100 µM. For the same molecule, the GI50 (SK-OV-3 ovarian) was 28.7 µM, the TGI (SK-OV-3 ovarian) was over 100 µM and the GI50 (HL-60(TB) leukemia) was 50.3 µM. The TGI (HL-60(TB) leukemia) was over 100 µM, the GI50 (M14 melanoma) was over 100 µM and the TGI (M14 melanoma) was over 100 µM. For the same molecule, the GI50 (A498 renal) was 83.1 µM, the TGI (A498 renal) was over 100 µM and the GI50 (BT-549 breast) was over 100 µM. It also gave a TGI (BT-549 breast) of over 100 µM, a GI50 (K-562 leukemia) of 35 µM and a TGI (K-562 leukemia) of over 100 µM. For the same molecule, the GI50 (786-0 renal) was over 100 µM, the TGI (786-0 renal) was over 100 µM and the GI50 (CAKI-1 renal) was 64.6 µM. The TGI (CAKI-1 renal) was over 100 µM, the GI50 (UO-31 renal) was over 100 µM and the TGI (UO-31 renal) was over 100 µM. For the same molecule, the GI50 (UACC-62 melanoma) was 74.7 µM, the TGI (UACC-62 melanoma) was over 100 µM and the GI50 (MDA-MB-231 breast) was 31.7 µM. It also gave a TGI (MDA-MB-231 breast) of over 100 µM, a GI50 (ACHN renal) of 63.8 µM and a TGI (ACHN renal) of over 100 µM. The GI50 (HT29 colon) was 10.1 µM, the TGI (HT29 colon) was 82.5 µM and the GI50 (SK-MEL-28 melanoma) was over 100 µM. It also gave a TGI (SK-MEL-28 melanoma) of over 100 µM, a GI50 (U251 CNS) of 22.3 µM and a TGI (U251 CNS) of over 100 µM. For the same molecule, the GI50 (NCI-H460 lung) was over 100 µM and the TGI (NCI-H460 lung) was over 100 µM.
